Experimental data: US12606533B2, “3-phenylpropylamine derivative” (DAIICHI SANKYO COMPANY, LIMITED, priority 2023, dated 2026)

Key:
SF1-LBD = SF1-LBD (Homo sapiens, UniProt Q13285); experiment: Inhibitory activity against binding of DAX1 to SF1-LBD (AlphaLISA); conditions: inhibition of binding of DAX1 peptide to His-SF1-LBD, read-out: cell-free SF1 IC50
Procedure: The binding activity of each compound to the SF-1 ligand binding domain (LBD) was evaluated using the binding inhibitory activity of each compound against binding of DAX1 to SF1-LBD as an index. 100 nM His-SF1-LBD, 2 nM Biotin-DAX1 peptide (Biotin-[…]-NH2) and each compound (8-point i1 dilution series with common ratio 2 from final concentration 2 μM) were mixed in assay buffer [25 mM HEPES (pH 7.5), 100 mM NaCl, 0.1% BSA, 0.01% CHAPS, 1 mM DTT] and reacted at room temperature for 30 min. Anti-6×His AlphaLISA Acceptor beads and Streptavidin-coated AlphaScreen Donor beads were mixed to a final concentrations of 5 μg/ml and 10 μg/ml, respectively, and reacted in the dark at room temperature for 60 min. AlphaLISA signals were detected using a multimode plate reader (EnVision Xcite, PerkinElmer). The binding rate of DAX1 peptide to SF1 was calculated from the luminescence amount (C) of the compound-free group and the luminescence amount (T) of the compound-added group, based on the following formula.
The DAX1 peptide binding rate at each concentration was analyzed using GraphPad Prism6 (GraphPad Software Inc.) to calculate the concentration (IC50 value) of each compound that inhibits 50% of the binding of DAX1 to SF1-LBD.

CYP11A1 = experiment: Changes in SF1 target gene expression for NCI-H295R: CYP11A1 mRNA (qPCR); assay type: cell-based; conditions: Homo sapiens, NCI-H295R cells, 24 hr
Procedure: (§1) NCI-H295R cells were cultured in a 5% CO2 incubator at 37° C. using DMEM/F12 medium (Thermo Fisher Scientific Inc.) containing 2.5% Nu-Serum (registered trademark) Growth Medium Supplement (Corning) and 1% Corning ITS+ Premix Universal Culture Supplement (Corning). The DMSO solution of each compound was serially diluted with DMSO using a D300e Digital Dispenser (TECAN), and the compounds were added to a 96-well plate (FALCON). NCI-H295R cells were seeded at 1×10^4 cells/50 μL/well on the 96-well plate containing the compounds added thereto, and cultured for 24 hr in a 5% CO2 incubator at 37° C. The final DMSO concentration in the medium was adjusted to 0.1% (v/v) in all cases, and the concentration range of the compounds was set to 1000 nM to 0.32 nM with a common ratio […]. After the completion of culture, the medium was discarded, 50 μL/well of chilled D-PBS (Sigma Aldrich) was added to wash the cells, and D-PBS was discarded. After washing, 25 μL/well of Cells-to-CT (registered trademark) Bulk Lysis Reagents (Thermo Fisher Scientific, Inc.) was added to the wells, the mixture was stirred for 5 min with a plate mixer, and 2.5 μL/well of the reaction quenching liquid was added to prepare cell lysate. The cell lysate was dispensed into a 96-well plate (Corning) at 10 μL/well, and 40 μL/well of Cells-to-CT Bulk RT Reagents (Thermo Fisher Scientific, Inc.) was added. A reverse transcription reaction was performed at 37° C. for 50 min using a thermal cycler, and the reverse transcriptase was inactivated by heating at 95° C. for 5 min, and then stored at 10° C. PrimeTime (registered trademark) Gene Expression Master Mix (Integrated DNA Technologies), the target genes CYP11A1, CYP17A1, CYP21A2, or STAR, and the control gene ACTB PrimeTime (registered trademark) qPCR Probe Assays (Integrated DNA Technologies), and Nuclease free water were mixed at a ratio of 20:1:1:10 to prepare a PrimerProbe mix. The prepared PrimerProbe mix was added to a 384-well plate at 8 μL/well, and the cDNA obtained by reverse transcription was added at 2 μL/well. Real-Time PCR was performed under fast cycling conditions (95° C. for 3 min, followed by 40 cycles of 95° C. for 5 seconds and 62° C. for 30 seconds) to measure the fluorescent signal. The obtained data was analyzed using GraphPad Prism9 (GraphPad Software Inc.) to calculate the concentration (IC50 value) that reduces the mRNA expression level by 50%. The IC50 values (unit: nM) for CYP11A1, CYP17A1, CYP21A2, and STAR, of the compounds corresponding to each Example number are shown in Table 94.

CYP17A1 = experiment: Changes in SF1 target gene expression for NCI-H295R: CYP17A1 mRNA (qPCR); assay type: cell-based; conditions: Homo sapiens, NCI-H295R cells, 24 hr
Procedure: as §1

CYP21A2 = experiment: Changes in SF1 target gene expression for NCI-H295R: CYP21A2 mRNA (qPCR); assay type: cell-based; conditions: Homo sapiens, NCI-H295R cells, 24 hr
Procedure: as §1

STAR = experiment: Changes in SF1 target gene expression for NCI-H295R: STAR mRNA (qPCR); assay type: cell-based; conditions: Homo sapiens, NCI-H295R cells, 24 hr
Procedure: as §1

SF1-LBD, sequence (Q13285 222-459 limits assumed): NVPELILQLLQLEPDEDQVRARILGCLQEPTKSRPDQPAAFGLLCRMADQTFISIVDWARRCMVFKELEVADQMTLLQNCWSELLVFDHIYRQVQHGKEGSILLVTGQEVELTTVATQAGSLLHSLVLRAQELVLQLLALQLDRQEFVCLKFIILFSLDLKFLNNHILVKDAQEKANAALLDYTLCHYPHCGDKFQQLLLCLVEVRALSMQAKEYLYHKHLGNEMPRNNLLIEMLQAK

| Compound | IC50 (SF1-LBD) | IC50 (CYP11A1) | IC50 (CYP17A1) | IC50 (CYP21A2) | IC50 (STAR) |
| --- | --- | --- | --- | --- | --- |
| COc1ccc(C2(CCN(Cc3ccc(Oc4ccc(CC(C)(C)C(=O)O)cc4)cc3)C(=O)C(C)(C)C)CCOC(C)(C)C2)cc1 (stereo not shown) [Example J4, 3-[4-(4-{[(2,2-Dimethylpropanoyl){2-[4-(4-methoxyphenyl)-2,2-dimethyltetrahydro-2H-pyran-4-yl]ethyl}amino]methyl}phenoxy)phenyl]-2,2-dimethylpropanoic acid] | 39 nM | 4.1 nM | 70 nM | 8.1 nM | 14 nM |
| COc1ccc(C2(CCN(CCC(F)(F)F)Cc3ccc(O[C@H]4CC[C@H](CC(=O)O)CC4)cc3)CCOC(C)(C)C2)cc1 (stereo partly drawn) [Example K5, [Trans-4-(4-{[{2-[4-(4-methoxyphenyl)-2,2-dimethyltetrahydro-2H-pyran-4-yl]ethyl}(3,3,3-trifluoropropyl)amino]methyl}phenoxy)cyclohexyl]acetic acid] | 29 nM | 12 nM | 141 nM | 28 nM | 47 nM |
| CNc1ccc(C2(CCN(Cc3ccc(O[C@H]4CC[C@H](C(=O)O)CC4)cc3)C(=O)C(C)(C)C)CCOC(C)(C)C2)cc1 (stereo partly drawn) [Example L2, Trans-4-(4-{[(2-{2,2-dimethyl-4-[4-(methylamino)phenyl]tetrahydro-2H-pyran-4-yl}ethyl) (2,2-dimethylpropanoyl)amino]methyl}phenoxy)cyclohexanecarboxylic acid] | 32 nM | 17 nM | 238 nM | 46 nM | 83 nM |
| COc1ccc([C@]2(CCN(Cc3ccc(O[C@H]4CC[C@H](C(=O)O)CC4)cc3)CC(C)(C)C(F)(F)F)CCOC(C)(C)C2)cc1 [Example M5, Trans-4-(4-{[{2-[(4R)-4-(4-methoxyphenyl)-2,2-dimethyltetrahydro-2H-pyran-4-yl]ethyl)(3,3,3-trifluoro-2,2-dimethylpropyl)amino]methyl}phenoxy)cyclohexanecarboxylic acid] | 18 nM | 2.8 nM | 13 nM | 4.3 nM | 3.9 nM |
| COc1ccc(C2(CCN(Cc3ccc(Oc4ccc(N=S(C)(C)=O)cc4)cc3)C(=O)C(C)(C)C)CCOC(C)(C)C2)cc1 (stereo not shown) [Example N2] | 41 nM | 19 nM | 113 nM | 30 nM | 39 nM |
| COc1ccc(C2(CCN(Cc3ccc(O[C@H]4CC[C@H](C(=O)O)CC4)cc3)c3ncc(F)cn3)CCOC(C)(C)C2)cc1 (stereo partly drawn) [Example O2, Trans-4-(4-{[(5-fluoropyrimidin-2-yl) {2-[4-(4-methoxyphenyl)-2,2-dimethyltetrahydro-2H-pyran-4-yl]ethyl}amino]methyl}phenoxy)cyclohexanecarboxylic acid] | 36 nM | 35 nM | 211 nM | 82 nM | 75 nM |
| COc1ccc([C@]2(CCN(Cc3ccc(Oc4ccc(C(C)C(=O)O)cc4)cc3)CC(C)(C)C(F)(F)F)CCOC(C)(C)C2)cc1 (stereo partly drawn) [Example P3, 2-[4-(4-{[{2-[(4R)-4-(4-Methoxyphenyl)-2,2-dimethyltetrahydro-2H-pyran-4-yl]ethyl}(3,3,3-trifluoro-2,2-dimethylpropyl)amino]methyl}phenoxy)phenyl]propanoic acid] | 30 nM | 4.4 nM | 137 nM | 9.8 nM | 19 nM |
| COc1ccc(C2(CCN(Cc3ccc(C(=O)c4ccc(CCC(=O)O)cc4)c(C)c3)C(=O)C(C)(C)C(F)(F)F)CCOC(C)(C)C2)cc1 (stereo not shown) [Example Q4, 3-[4-(4-{[{2-[4-(4-Methoxyphenyl)-2,2-dimethyltetrahydro-2H-pyran-4-yl]ethyl}(3,3,3-trifluoro-2,2-dimethylpropanoyl)amino]methyl}-2-methylbenzoyl)phenyl]propanoic acid] | 35 nM | 8.5 nM | 189 nM | 19 nM | 44 nM |
